The results in this text go back to ChEMBL document CHEMBL1145073, “DNA binding ligands targeting drug-resistant bacteria: structure, activity, and pharmacology” (J Med Chem, 2003).

Converted amounts (≈) assume the structure as drawn.

Experiment [1] has as its system Enterococcus faecalis. Description: In vitro antimicrobial activity against vancomycin-susceptible Enterococcus faecalis 29212. It counts as functional.
In another experiment the test system is Candida albicans. Description: In vitro antimicrobial activity against Candida albicans 38247. It counts as functional.
Experiment [2] can be described thus: In vitro antimicrobial activity against penicillin-intermediate Streptococcus pneumoniae 49619. It counts as functional.
Another experiment deals with Bacillus cereus. Description: In vitro antimicrobial activity against Bacillus cereus 11778. The experiment is classed as functional.
The test system of experiment [3] is Mus musculus. Description: Acute tolerability of compound in 4 ICR female mice after intravenous administration was determined; Lethality 1/4. It counts as functional, organism-based.
In another experiment the test system is Staphylococcus aureus. Description: In vitro antimicrobial activity against methicillin resistant Staphylococcus aureus 27660. It counts as functional.
Experiment [4] concerns Enterococcus faecalis. As to the kind of experiment: In vitro antimicrobial activity against vancomycin-resistant Enterococcus faecalis 51559.
Experiment [5] is described as follows: In vitro antimicrobial activity against penicillin resistant Streptococcus pneumoniae 51422. The experiment is classed as functional.
For experiment [6], the system named is Mus musculus. Description: Acute tolerability of compound […] female mice after intravenous administration was determined; Lethality 3/5. It counts as functional, organism-based.
Another experiment addresses Nucleic Acid. Description: Apparent binding affinity against DNA (5'-ACAATTAA-3') was determined using DNase I footprinting titration method. It counts as nucleic-acid assay. To be noted: read-out: Kd app.
The test system of experiment [7] is Mus musculus. As to the kind of experiment: Acute tolerability of compound in 5 ICR female mice after intravenous administration was determined; Lethality 1/5.
The subject of experiment [8] is Enterococcus faecalis. As to the kind of experiment: In vitro antimicrobial activity against vancomycin-resistant Enterococcus faecalis 51559. The experiment is classed as functional.
The subject of experiment [9] is Mus musculus. Description: Acute tolerability of compound in 4 ICR female mice after intravenous administration was determined; no adverse effects. It counts as functional, organism-based.
The mark [10] stands for this setting: Candida albicans, read-out: MIC.

One may read the MIC as the lowest concentration found to suppress growth. On to `Cn1cc(NC(=O)c2cc(NC(=O)c3cc(NC(=O)c4cn5ccsc5n4)cn3C)cn2C)cc1C(=O)NCCN1CCOCC1`, for which the MIC with Enterococcus faecalis [1] is 0.5 µg/mL (≈ 0.773 µM); in the experiment with Candida albicans (setting [10]), over 32 µg/mL; in [2], 0.031 µg/mL (≈ 0.0479 µM); against Bacillus cereus, 2 µg/mL (≈ 3.09 µM). Besides, the Acute tolerability result in the experiment on Mus musculus [3] is on record as “Lethality 1/4”.

Take `Cn1cc(NC(=O)c2cc(NC(=O)c3cc(NC(=O)c4sccc4Cl)cn3C)cn2C)cc1C(=O)NCCCN1CCCCC1`: the MIC was 4 µg/mL (≈ 6.12 µM) in the experiment on Enterococcus faecalis [1]; 8 µg/mL (≈ 12.2 µM) in the experiment on Staphylococcus aureus; over 32 µg/mL with Candida albicans (setting [10]); 16 µg/mL (≈ 24.5 µM) against Enterococcus faecalis [4]; 4 µg/mL (≈ 6.12 µM) in [2]; 16 µg/mL (≈ 24.5 µM) in experiment [5]. This compound came in with an MIC against Bacillus cereus of 8 µg/mL (≈ 12.2 µM). For the same compound, the Acute tolerability result with Mus musculus [6] is recorded as “Lethality 3/5”. Further, the Kd on Nucleic Acid turned out to be 50 nM.

As for `Cn1cc(NC(=O)c2cc(NC(=O)c3cc(NC(=O)c4sccc4Cl)cn3C)cn2C)cc1C(=O)NCCN1CCC(F)CC1`, the minimal inhibitory concentration (MIC) in the experiment with Enterococcus faecalis [1] is 1 µg/mL (≈ 1.52 µM); in the experiment on Enterococcus faecalis [8], 0.5 µg/mL (≈ 0.761 µM); against Staphylococcus aureus it was 1 µg/mL (≈ 1.52 µM); with Candida albicans (setting [10]) it was over 32 µg/mL; in experiment [2], 0.031 µg/mL (≈ 0.0472 µM); in experiment [5], 0.125 µg/mL (≈ 0.19 µM). The MIC in the experiment on Bacillus cereus came to 1 µg/mL (≈ 1.52 µM). Moreover, the Acute tolerability result in the experiment on Mus musculus [7] is “Lethality 1/5”. Further, the Kd at Nucleic Acid worked out at 5 nM.

For `Cn1cc(NC(=O)c2cc(NC(=O)c3cc(-c4sccc4Cl)cn3C)cn2C)cc1C(=O)NCCN1CCOCC1`, the MIC against Enterococcus faecalis [1] was 1 µg/mL (≈ 1.67 µM); in the experiment with Enterococcus faecalis [8], 1 µg/mL (≈ 1.67 µM); against Staphylococcus aureus it was 4 µg/mL (≈ 6.69 µM); against Candida albicans, over 32 µg/mL; in experiment [2] it was 0.125 µg/mL (≈ 0.209 µM); in experiment [5] it was 0.125 µg/mL (≈ 0.209 µM). In the experiment with Bacillus cereus, this compound had an MIC of 1 µg/mL (≈ 1.67 µM). Also, the Acute tolerability result in the experiment on Mus musculus [9] was “no adverse effects”. Besides, the Kd on Nucleic Acid worked out at 20 nM.
